{"source": "patent US6969593B2", "about": "“Method for the selective survival or selective growth of a target cell by the use of a conjugate, its use in therapeutics and/or diagnostics and the preparation of said conjugate” (priority 2000, dated 2005)", "format_in_all_cases": "cell-based, Escherichia coli", "key": {"TG1-fd Bla I7 [1]": {"test_system": "TG1-fd Bla I7", "experiment": "Experiments with selective cultures: mixed culture, colonies counted on Tet dishes", "conditions": "t = 2 hours; for Bacteria.ml^−1 TG1-fd Bla 17 / % TG1-fd Bla 17: Table 1 results 1; for Bacteria.ml^−1 TG1-fd Bla 17 / Bacteria.ml^−1 TG1-fd Bla I7: complex + or − according to label; for Bacteria.ml^−1 TG1-fd Bla 17: t=0 1.58E+06; for % TG1-fd Bla 17 / % TG1-fd Bla I7: mixture with MM294-pET26b45; for % TG1-fd Bla 17: t=0 20.8%", "experimental": "(§1) 5 ml (OD=1) of the TG1-fd Bla I7 and the MM294-pET26b45 cultures are centrifuged (4000 RPM, 5 minutes) and twice washed in LB for finally being resolved in 5 ml sterile LB. Two cultures are mixed. 1 ml of this culture is diluted in 9 ml LB (5 erlenmeyers in parallell) and the necessary quantity of the ternary complex or the conjugate is added. During one hour at 37° C. incubation takes place whereafter penicilline is introduced in this culture medium (see table above) and agitation is performed during two hours at 37° C.\n(§2) Sampling is made at the start and the finish of the reaction which is diluted and put on Tet or Kan boxes. The incubation takes place all night at 37° C. Calculation of the colonies is made the morning after.\n(§3) Mixtures have been made of bacteria TG1-fd Bla […] and MM294-pET26b45. These mixtures have been brought into contact with the ternary complex and incubated during one hour by 37° C. to allow the triple complex to be formed on the bacteria. After this incubation penicillin is added in the culture medium and cultures grown in shaking suspensions for two hours at 37° C. Subsequently, these mixtures were plated on Tet dishes and Kan dishes and incubated overnight at 37° C. The next day, the number of colonies was counted.\n(§4) The inventors have also been working on the optimisation of the initial number added in the test of the different bacteria."}, "TG1-fd Bla I7 [2]": {"test_system": "TG1-fd Bla I7", "experiment": "Spectrophotometric follow up of the cultures (optical density at 600 nm)", "conditions": "200 and 800 mg.L^−1 of penicillin; with or without ternary complex according to label; 37° C.", "experimental": "(§5) Cultures (15 ml, OD=1) of TG1-fd Bla I7 and of MM294-pET26b45 are centrifuged (4000 RPM, 5 minutes). The pellet is washed twice with LB and is resolved in 15 ml sterile LB. In all cases 1 ml of the culture is diluted in 9 ml LB (11 erlenmeyers). Then the necessary quantity of the triple complexes calculated for complete degradation of the penicillin in two hours incubation is added and inbucated one hour at 37° C. Then penicillin is introduced at the final concentrations as indicated in the table below and for two hours at 37° C.\n(§6) A sample is made at the start and then every 30 minutes. The optical density is measured of the sample at 600 nm.\n(§7) In the next step, the applicant determined the conditions where optimal measurements could be made. With the help of spectrophotometric techniques the evolution in the optical density of different cultures was followed. […]\n(§8) These cultures were made in parallel with an increasing concentration of penicillin increasing in the culture medium from 0 mg.L^−1, 50 mg.L^−1, 100 mg.L^−1, 200 mg.L^−1, 400 mg.L^−1 to 800 mg.L^−1. The quantities of the ternary complex were calculated and adapted such that all the penicillin in the medium of culture were hydrolyzed in two hours. […]"}, "MM294-pET26b45 [3]": {"test_system": "MM294-pET26b45", "experiment": "Spectrophotometric follow up of the cultures (optical density at 600 nm)", "conditions": "200 and 800 mg.L^−1 of penicillin; with or without triple complex according to label; 37° C.", "experimental": "as §5, §6, §7, §8"}, "MM294-pET26b45 [4]": {"test_system": "MM294-pET26b45", "experiment": "Experiments with selective cultures: mixed culture, colonies counted on Kan dishes", "conditions": "t = 2 hours, complex + or − according to label", "experimental": "as §1, §2, §3, §4"}}, "data": [{"compound": "CC1(C)S[C@@H]2[C@H](NC(=O)Cc3ccccc3)C(=O)N2[C@H]1C(=O)O", "note": "[penicillin G]", "values": [{"measurement": "Bacteria.ml^−1 TG1-fd Bla 17", "setting": "TG1-fd Bla I7 [1]; [Pen] 200 mg·L^−1", "value": "1 190 ppm"}, {"measurement": "% TG1-fd Bla 17", "setting": "TG1-fd Bla I7 [1]; [Pen] 200 mg·L^−1", "value": 15.8, "unit": "%"}, {"measurement": "Bacteria.ml^−1 TG1-fd Bla 17", "setting": "TG1-fd Bla I7 [1]; [Pen] 800 mg·L^−1", "value": "1 500 ppm"}, {"measurement": "% TG1-fd Bla 17", "setting": "TG1-fd Bla I7 [1]; [Pen] 800 mg·L^−1", "value": 8.9, "unit": "%"}, {"measurement": "Bacteria.ml^−1 TG1-fd Bla I7", "setting": "TG1-fd Bla I7 [1]; Table 2 results 1, [Pen] 200 mg·L^−1, t=0 2.05E+07", "value": 351.2, "unit": "ppm"}, {"measurement": "% TG1-fd Bla I7", "setting": "TG1-fd Bla I7 [1]; Table 2 results 1, [Pen] 200 mg·L^−1, t=0 54.2%", "value": 50.3, "unit": "%"}, {"measurement": "Bacteria.ml^−1 TG1-fd Bla I7", "setting": "TG1-fd Bla I7 [1]; Table 2 results 1, [Pen] 800 mg·L^−1, t=0 2.05E+07", "value": 439.0, "unit": "ppm"}, {"measurement": "% TG1-fd Bla I7", "setting": "TG1-fd Bla I7 [1]; Table 2 results 1, [Pen] 800 mg·L^−1, t=0 54.2%", "value": 44.1, "unit": "%"}, {"measurement": "Bacteria.ml^−1 TG1-fd Bla I7", "setting": "TG1-fd Bla I7 [1]; Table 2 results 2, [Pen] 200 mg·L^−1, t=0 1.37E+08", "value": 48.2, "unit": "ppm"}, {"measurement": "% TG1-fd Bla I7", "setting": "TG1-fd Bla I7 [1]; Table 2 results 2, [Pen] 200 mg·L^−1, t=0 60.4%", "value": 47.1, "unit": "%"}, {"measurement": "Bacteria.ml^−1 TG1-fd Bla I7", "setting": "TG1-fd Bla I7 [1]; Table 2 results 2, [Pen] 800 mg·L^−1, t=0 1.37E+08", "value": 2.9, "unit": "ppm"}, {"measurement": "% TG1-fd Bla I7", "setting": "TG1-fd Bla I7 [1]; Table 2 results 2, [Pen] 800 mg·L^−1, t=0 60.4%", "value": 6.9, "unit": "%"}, {"measurement": "evolution of optical density of the culture during time", "setting": "TG1-fd Bla I7 [2]", "value": "tendency to decrease"}, {"measurement": "evolution of optical density of the culture during time", "setting": "MM294-pET26b45 [3]", "value": "tendency to decrease"}, {"measurement": "Bacteria.ml^−1 MM294-pET26b45", "setting": "MM294-pET26b45 [4]; Table 1 results 1, [Pen] 200 mg·L^−1, t=0 6.00E+06", "value": "1 667 ppm"}, {"measurement": "Bacteria.ml^−1 MM294-pET26b45", "setting": "MM294-pET26b45 [4]; Table 1 results 1, [Pen] 800 mg·L^−1, t=0 6.00E+06", "value": 557, "unit": "ppm"}, {"measurement": "Bacteria.ml^−1 MM294-pET26b45", "setting": "MM294-pET26b45 [4]; Table 2 results 1, [Pen] 200 mg·L^−1, t=0 1.73E+07", "value": 410.4, "unit": "ppm"}, {"measurement": "Bacteria.ml^−1 MM294-pET26b45", "setting": "MM294-pET26b45 [4]; Table 2 results 1, [Pen] 800 mg·L^−1, t=0 1.73E+07", "value": 659.0, "unit": "ppm"}, {"measurement": "Bacteria.ml^−1 MM294-pET26b45", "setting": "MM294-pET26b45 [4]; Table 2 results 2, [Pen] 200 mg·L^−1, t=0 9.00E+07", "value": 82.2, "unit": "ppm"}, {"measurement": "Bacteria.ml^−1 MM294-pET26b45", "setting": "MM294-pET26b45 [4]; Table 2 results 2, [Pen] 800 mg·L^−1, t=0 9.00E+07", "value": 60.0, "unit": "ppm"}]}]}
